These results are taken from patent publication US6589991B1, “Therapeutic methods employing disulfide derivatives of dithiocarbamates and compositions useful therefor” (Medinox, Inc., priority 1998, dated 2003).

Entries after “also recorded” stand apart in the source; their conditions may differ.

For one series, the system named is diabetic-prone BB rats. The procedure: FIG. 4 is a graph illustrating the effects of oral administration of L-proline dithiocarbamate on the survival of diabetic-prone BB rats. The percentage of survival was plotted against the age of the animals over 125 days. The treated group (n=30) (▪) received 5 mg/ml monomeric L-proline dithiocarbamate in drinking water, while the untreated group (n=31) (□) received only water.
We tested the effectiveness of the oral administration of (L-PD) for the treatment of diabetic-prone BB rats, an animal model that is widely used for type I insulin-dependent diabetes. Type I diabetes is an autoimmune disease. the pathogenesis of this disease remains unclear although there is ample evidence for increased NO production at early stages of the disease (see, for example, G. M. Piper, Hypertension, 31: 1047-1060, 1998).
Male, diabetic-prone BB rats (n=61, 250-280 g) were used for the study. The rats were distributed between untreated and L-PD treated groups. The treated group received 5 mg/ml L-PD in drinking water. The treatment started when the animals were 2 months old and continued until they were 4 months old. […] Percent survival was calculated by Product-Limit Survival Analysis Generalized Savage (Mantel-Cox) with p<0.01.

For a further series, the system named is Lewis rats. To be noted: 10 mg/ml in drinking water; scored 0-6 from day 6; n=9.
Series [1] in a line: Stability at pH 1 / stomach acid. In kind it is physicochemical.
A short description of series [2]: Conversion of the dithiocarbamate disulfide to the monomer by L-cysteine (UV spectrum). In kind it is physicochemical. To be noted: L-cysteine 5 mg/mL in 60 mM HEPES pH 7.4; disulfide 20 μg/mL; UV 190-340 nm. The procedure:
FIG. 2 is an illustration of the UV spectrum of N-methyl-D-glucamine dithiocarbamate disulfide (MGDD) (20 μg/mL)in the presence of L-cysteine (5 mg/mL). The spectrum was recorded with a scan range of 190 nm to 340 nm.
FIG. 10 is an illustration of the UV spectrum measured on Hewlett Packard 8451A Diode Array Spectrophotometer. Scanning wavelength 190 nm-340 nm. One mL freshly prepared solution of L-cysteine (5 mg/mL) in 60 mM HEPES buffer, pH=7.4 is transferred into the UV cell (cell length 1 cm) plus 1 μl acetone and the absorbance of this solution is measured as a background. Added 1 μl stock solution of Pyrrolidine dithiocarbamate disulfide (PDD) in acetone to the cuvette—final concentration of PDD is 20 μg/mL. After mixing the UV spectrum is measured immediately.
A freshly prepared solution of L-cysteine (5 mg/mL) in 60 mM HEPES buffer, pH 7.4 was transferred into a UV cell (cell length 1cm) plus 1 μl acetone and the absorbance of this solution was recorded as background. Immediately after the addition of Pyrrolidine dithiocarbamate disulfide (PDD) (final concentration of 20 μg/mL), the spectrum was recorded with a scan range of 190 nm to 340 nm.

The format of series [3] is physicochemical. As to conditions: KCN in water; UV spectrum recorded immediately after mixing.
The conditions of series [4]: cited from earlier work.

Description for Lewis rats: The test rats (▪) were given L-PD in drinking water (10 mg/ml). Control rats ([formula]) received only distilled water for drinking. Beginning on day 6, the left foot of the animals was scored for the development of arthritic disease using the following system: 0=no redness or inflammation, 1=one area of redness or inflammation on the foot less than 2 mm in diameter, 3=partial redness/inflammation of the footpad, 4=all of footpad red or inflamed, 5=criteria of 4 plus at least one toe red or inflamed, and 6=criteria of 4 plus toes inflamed and deformed (toes curling under footpad).
After the subcutaneous injection in the right footpad of a suspension in mineral oil of heat killed M. tuberculosis on day 1, the Lewis rats were separated into two groups (n=9); one given L-PD (10 mg/ml) in the drinking water and the other given only distilled water. Beginning on day 6, the left foot of the animals was scored for the development of arthritic disease using the following system: 0=no redness or inflammation, 1=one area of redness or inflammation on the foot less than 2 mm in diameter, 3=partial redness/inflammation of the footpad, 4=all of footpad red or inflamed, 5=criteria of 4 plus at least one toe red or inflame, d, and 6=criteria of 4 plus toes inflamed and deformed (toes curling under footpad).

As for `NC(=S)S.O=C(O)[C@@H]1CCCN1` [L-PD, L-proline dithiocarbamate], the “animals surviving at the end of the experiments” value in the series on diabetic-prone BB rats (5 mg/ml in drinking water for 2 months (age 2 to 4 months), untreated 10 percent, p<0.01) is reported as “more than 30%”. In addition, the “improvement in survival compared to the untreated group” value in the series with diabetic-prone BB rats (5 mg/ml in drinking water, n=30, over 125 days) is “statistically significant”. Moreover, the “effect on water consumption” value with diabetic-prone BB rats (chronic treatment, 5 mg/ml in drinking water) is listed as “no apparent effect”. Also, the “severity score of the inflammation in the left footpad” value with Lewis rats is listed as “significantly reduced”.
`S=C(SSC(=S)N1CCCC1)N1CCCC1` [PDD, Pyrrolidine dithiocarbamate disulfide]: the “time stable at pH 1” value in series [1] is ≤ 24 hours. Moreover, in series [2], the “conversion to the monomeric dithiocarbamate on addition of L-cysteine” value is listed as “readily be converted into its starting material, pyrrolidine dithiocarbamate”. Also, in series [3], the “reaction with potassium cyanide” value was “fast reaction”.
With `CN(C[C@H](O)[C@@H](O)[C@H](O)[C@H](O)CO)C(=S)SSC(=S)N(C)C[C@H](O)[C@@H](O)[C@H](O)[C@H](O)CO` [MGDD, N-methyl-D-glucamine dithiocarbamate disulfide], the “conversion to the monomeric dithiocarbamate on addition of L-cysteine” value in series [2] is “readily be converted into its starting material, MGD; also recorded: identical to that of N-methyl-D-glucamine dithiocarbamate”. The “reaction with potassium cyanide” value in series [3] was “fast reaction”.
Regarding `S=C(S)N1CCCC1` [Pyrrolidine dithiocarbamate], the “stability in the presence of stomach acid” value in series [4] is recorded as “breaks down to ineffective species”.
